Key:
haem oxygenase 1 (HMOX1) = test: HMOX1 production by fibroblasts (ELISA); type: cell-based, human; conditions: 24 hours
Experimental: An extract of the invention was analysed on the protein expression of haem oxygenase.
Normal human fibroblasts were treated for 24 hours with a 0.002% and a 0.005% (w/v) extract of the invention, as obtained in Example 1, and with 5 and 10 μM curcumin (reference hormetin).
At the end of the treatment, intracellular haem oxygenase 1 (or HMOX1 or H01) was quantified using an ELISA technique. Staining, proportional to the quantity of the marker of interest, was measured by reading the optical density (OD) at 450 nm, and the value obtained was related to the quantity of cells obtained by a protein assay using the BC Assay (Interchim).
The results were statistically analysed by one-way ANOVA followed by Dunnett's test (GraphPad PRISM version 5.02 software, GraphPad Software, San Diego, Calif., USA).

[1] = tested on: keratinocytes treated with 9 μg/ml BaP; test: ROS production in keratinocytes treated with 9 μg/ml BaP (H2DCF-DA probe); type: cell-based, human; conditions: 24 hours, then 9 μg/ml BaP 20 minutes
Experimental: The keratinocytes were then stimulated with 9 μg/ml benzo-α-pyrene (BaP) for 20 minutes. ROS production was evaluated by measurement of fluorescence.
(§1) The significance of the results was verified by Student's t-test.

MMP1 = test: IR-induced production of MMP1 in normal human fibroblasts (ELISA); type: cell-based; conditions: 10^−7 M, 48 hours after IR 0.57 kJ/cm^2
Experimental: The ability of an extract of the invention to protect dermal cells from the harmful effects of IR rays was studied by evaluating MMP1 production.
Normal human fibroblasts (NHF) were incubated in the presence of a 0.001% extract of the invention, as obtained in Example 1, or of 10^−7 M dexamethasone (reference anti-inflammatory) for 48 hours following 1 hour of infrared irradiation (0.57 kJ/cm^2).
After incubation, the supernatants are collected in order to assay released MMP1 (ELISA Kit, R&D Systems).
as §1

prostaglandin E2 (PGE2) = test: PGE2 production in PMA-treated keratinocytes; type: cell-based, human; conditions: 10^−6 M, 24 hours pretreatment, then PMA 0.1 μg/ml 24 hours
Experimental: The anti-inflammatory protection of an extract of the invention with respect to a chemical molecule, PMA, was studied by analysis of the release of prostaglandin 2 (PGE2).
Normal human keratinocytes were pretreated with a 0.002% and a 0.005% extract of the invention, as obtained in Example 1, and with 10^−6 M indomethacin (anti-inflammatory control of the prostaglandin pathway) for 24 hours at 37° C., in order to be able to measure a level of protection of the active agent with respect to inflammation by 0.1 μg/ml PMA (phorbol 12-myristate 13-acetate) used on these same cell monolayers for a further 24 hours. At the end of the treatment, the supernatants are collected and an assay of prostaglandin E2 (PGE2; R&D Systems) is performed. Staining, proportional to the amount of PGE2, was measured by reading the optical density (OD) at 450 nm.
as §1

Nrf2 = Nrf2 activity in ARE-luciferase-transfected HaCaT keratinocytes; type: cell-based; conditions: 6 hours
Experimental: The effect of the extract of the invention was evaluated with respect to activation of translocation of Nrf2, precursor of the cascade responsible for the hormetic response and for certain detoxification pathways of the organism.
ARE-luciferase-transfected HaCaT keratinocytes, containing the antioxidant response element (ARE) plasmid NQO1, which is a specific plasmid for activation of Nrf2 and luciferase (reporter gene), were treated for 6 hours at 37° C. with an extract of the invention, as obtained in Example 1, at concentrations ranging from 0.01% to 0.0005% (w/v) and with a positive reference, 20 μM tert-butylhydroquinone.
At the end of the treatment, the cell monolayers are lysed, luciferase activity is assayed using a “Luciferase Assay Kit” from PROMEGA, and the protein content of each lysate is assayed using the Bradford method (BioRad).

[2] = tested on: H2O2-treated keratinocytes; test: ROS production in H2O2-treated keratinocytes (H2DCF-DA probe); type: cell-based, human; conditions: 24 hours, then 100 μM H2O2 20 minutes
Experimental: The antioxidant potential of an extract of the invention with respect to H2O2 induction of reactive oxygen species was studied.
Normal human keratinocytes were incubated for 24 hours in the presence of a 0.002%, a 0.005% and a 0.01% (w/v) extract of the invention, as obtained in Example 1, or of 500 μM vitamin C and 10 μM quercetin (reference antioxidants) before incorporation of the H2DCF-DA probe (incubation for 60 minutes).
The keratinocytes were then stimulated with 100 μM hydrogen peroxide (H2O2) for 20 minutes and the production of reactive oxygen species (ROS) was evaluated by measurement of fluorescence.
(§2) The results were statistically analysed by one-way ANOVA followed by Tukey's test (GraphPad PRISM version 5.02 software, GraphPad Software, San Diego, Calif., USA).

[3] = tested on: keratinocytes treated by UV at 2400 J/m^2; test: ROS production in keratinocytes treated by UV at 2400 J/m^2; type: cell-based, human; conditions: 500 μM
Experimental: The antioxidant potential of an extract of the invention with respect to UV-irradiation-induced reactive oxygen species (ROS) was studied.
Normal human keratinocytes were incubated for 24 hours in the presence of a 0.001% and a 0.005% (w/v) extract of the invention, as obtained in Example 1, or of 500 μM vitamin C (reference antioxidant), before incorporation of the H2DCF-DA probe (incubation for 1 hour).
The keratinocytes were then stimulated with UV at 2400 J/m^2 (2000 J/m^2 UVB and 400 J/m^2 UVA) then returned to culture in the presence of a 0.001% and a 0.005% (w/v) extract of the invention, as obtained in Example 1, or of 500 μM vitamin C, for 15 minutes at 37° C.
The production of reactive oxygen species (ROS) was evaluated by measurement of fluorescence and the value obtained was normalized to the quantity of cells obtained using an MTT cell viability assay.
as §2

SMILES: COc1cc(/C=C/C(=O)CC(=O)/C=C/c2ccc(O)c(OC)c2)ccc1O [Curcumin, curcumin]
- HMOX1 (ng/ml on quantity of cells) (haem oxygenase 1 (HMOX1); 5 μM): 0.060 ± 0.002 ng/ml on quantity of cells
- HMOX1 (ng/ml on quantity of cells) (haem oxygenase 1 (HMOX1); 10 μM): 0.105 ± 0.006 ng/ml on quantity of cells
- ROS % change (Significance) ([1]; 10 μM): −16%
- ROS (fluorescence units) ([1]; 10 μM): 14065 ± 1231 fluorescence units

SMILES: C[C@@H]1C[C@H]2[C@@H]3CCC4=CC(=O)C=C[C@]4(C)[C@@]3(F)[C@@H](O)C[C@]2(C)[C@@]1(O)C(=O)CO [Dexamethasone, dexamethasone]
- % protection (IR-induced MMP1) (MMP1): 102%
- MMP1 (MMP1): 9.3 ng/mL

SMILES: COc1ccc2c(c1)c(CC(=O)O)c(C)n2C(=O)c1ccc(Cl)cc1 [Indomethacin, indomethacin]
- PGE2 (prostaglandin E2 (PGE2)): 52 ± 8 pg/mL
- inhibition at 1 µM (prostaglandin E2 (PGE2); Homo sapiens, Keratinocyte): 100%

SMILES: CC(C)(C)c1cc(O)ccc1O [Tert-butylhydroquinone, tert-butylhydroquinone]
- Nrf2 activity (mean normalized RLU/μg of proteins) (Nrf2; 20 μM): 23216.4 RLU/μg of proteins
- Nrf2 Activation (%) (Nrf2; 20 μM (positive reference = 100)): 100%

SMILES: O=c1c(O)c(-c2ccc(O)c(O)c2)oc2cc(O)cc(O)c12 [quercetin]
- ROS % change (Significance) ([2]; 10 μM): −67%
- ROS (fluorescence units) ([2]; 10 μM): 14367.847 ± 1790.753 fluorescence units
- ROS % change (Significance) ([1]; 10 μM): −32%
- ROS (fluorescence units) ([1]; 10 μM): 17140 ± 1930 fluorescence units

SMILES: Oc1ccc(C=Cc2cc(O)cc(O)c2)cc1 [resveratrol]
- ROS % change (Significance) ([1]; 10 μM): −21%
- ROS (fluorescence units) ([1]; 10 μM): 20357 ± 503 fluorescence units

SMILES: O=C1O[C@H]([C@@H](O)CO)C(O)=C1O [vitamin C]
- ROS % change (Significance) ([2]; 500 μM): −51%
- ROS (fluorescence units) ([2]; 500 μM): 21719.018 ± 3174.253 fluorescence units
- ROS % change (Significance) ([1]; 500 μM): −16%
- ROS (fluorescence units) ([1]; 500 μM): 14089 ± 1719 fluorescence units
- ROS (fluorescence intensity/MTT) ([3]; UV 2400 J/m^2): 26005 ± 3723 fluorescence intensity/MTT
- ROS % change ([3]; UV 2400 J/m^2, vs control with UVs): −40%

Reference: patent US11596662B2, “Passion flower seed extract, and cosmetic, pharmaceutical or dermatological compositions containing same” (priority 2015, dated 2023)
